Results taken from patent publication US9284321B2, “Piperazino[1,2-a]indol-1-ones and [1,4]diazepino[1,2-a]indol-1-one” (Hoffmann-La Roche Inc., priority 2012, dated 2016).

Tests used:
[1] = system: human embryonic stem cell derived neural stem cells (NSCs); experiment: Neural Stem Cell Proliferation Assay (neurogenesis assay, ATP levels by CellTiterGlo); format: cell-based; conditions: 96 h, compound concentration at which 150% activity of control (100%) is reached, NSC proliferation by ATP level after 4 days incubation, dose response 8 μM to 8 nM
Procedure, shortened: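 Read-out is CellTiterGlo ATP luminescence after 4-day culture (37 °C, 5% CO2) of dual-SMAD-derived human ESC NSCs, dosed 4 h post-seeding at 8 μM to 8 nM (11 points, 2-fold). EC150 marks the concentration reaching 150% of the media-only control (0.25% DMSO).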

| Compound | melting point | EC (150% of control) [1] |
| --- | --- | --- |
| Cc1c2n(c3c(-c4ccc(Cl)c(F)c4)cc(C#N)cc13)CCCNC2=O [Example 297, 7-(4-Chloro-3-fluorophenyl)-11-methyl-1-oxo-2,3,4,5-tetrahydro-[1,4]diazepino[1,2-a]indole-9-carbonitrile] | 247.5 °C | 0.096 µM |
| Cc1c2n(c3c(-c4ccc(S(C)(=O)=O)cc4)cc(F)cc13)CCNC2=O [Example 125, 8-Fluoro-6-(4-methanesulfonyl-phenyl)-10-methyl-3,4-dihydro-2H-1-pyrazino[1,2-a]indol-1-one] | 292 °C | 0.015 µM |
| N#Cc1cc(-c2ccnc(F)c2)c2c(c1)cc1n2CCNC1=O [Example 177, 6-(2-Fluoro-pyridin-4-yl)-1-oxo-1,2,3,4-tetrahydro-pyrazino[1,2-a]indole-8-carbonitrile] | 289 °C | 0.68 µM |
| O=C1NCCCn2c1cc1cc(F)cc(-c3ccc(Cl)cc3)c12 [Example 29, 7-(4-Chloro-phenyl)-9-fluoro-2,3,4,5-tetrahydro-[1,4]diazepino[1,2-a]indol-1-one] | 263.5 °C | 0.03 µM |
| C[C@@H]1CNC(=O)c2cc3cc(F)cc(-c4ccc(C(F)(F)F)cc4)c3n21 [Example 13, (R)-8-Fluoro-4-methyl-6-(4-trifluoromethyl-phenyl)-3,4-dihydro-2H-pyrazino[1,2-a]indol-1-one] | 307 °C | 0.16 µM |
| COc1ccc(-c2cc(C#N)cc3c(C)c4n(c23)CCNC4=O)cc1 [Example 247, 6-(4-Methoxyphenyl)-10-methyl-1-oxo-3,4-dihydro-2H-pyrazino[1,2-a]indole-8-carbonitrile] | 285 °C | 0.03 µM |
| Cc1c2n(c3c(-c4ccc(F)nc4)cc(C#N)cc13)CCCNC2=O [Example 209, 7-(6-Fluoropyridin-3-yl)-11-methyl-1-oxo-2,3,4,5-tetrahydro-[1,4]diazepino[1,2-a]indole-9-carbonitrile] | 280 °C | 0.16 µM |
| Cc1c2n(c3c(-c4ccc(C(C)(C)C)cc4)cc(F)cc13)CCNC2=O [Example 132, 6-(4-tert-Butyl-phenyl)-8-fluoro-10-methyl-3,4-dihydro-2H-pyrazino[1,2-a]indol-1-one] | 216 °C | 0.046 µM |
| Cc1c2n(c3c(-c4ccc(F)cc4F)cc(F)cc13)CCNC2=O [Example 122, 6-(2,4-Difluoro-phenyl)-8-fluoro-10-methyl-3,4-dihydro-2H-pyrazino[1,2-a]indol-1-one] | 204 °C | 0.013 µM |
| Cc1c2n(c3c(-c4cc(F)cc(F)c4)cc(F)cc13)CCNC2=O [Example 84, 6-(3,5-Difluoro-phenyl)-8-fluoro-10-methyl-3,4-dihydro-2H-pyrazino[1,2-a]indol-1-one] | 250 °C | 0.15 µM |
| O=C1NCCn2c1cc1cc(F)c(F)c(-c3ccc(F)c(F)c3)c12 [Example 44, 6-(3,4-Difluoro-phenyl)-7,8-difluoro-3,4-dihydro-2H-pyrazino[1,2-a]indol-1-one] | 305 °C | 0.3 µM |
| N#Cc1cc(-c2ccc(F)cc2)c2c(c1)cc1n2CCNC1=O [Example 78, 6-(4-Fluoro-phenyl)-1-oxo-1,2,3,4-tetrahydro-pyrazino[1,2-a]indole-8-carbonitrile] | 297.5 °C | 0.012 µM |
| N#Cc1cc(-c2cncnc2)c2c(c1)cc1n2CCNC1=O [Example 225, 1-Oxo-6-pyrimidin-5-yl-3,4-dihydro-2H-pyrazino[1,2-a]indole-8-carbonitrile] | 323.5 °C | 1.75 µM |
| N#Cc1cc(-c2ccc([N+](=O)[O-])cc2)c2c(c1)cc1n2CCCNC1=O [Example 234, 7-(4-Nitrophenyl)-1-oxo-2,3,4,5-tetrahydro-[1,4]diazepino[1,2-a]indole-9-carbonitrile] | 193.5 °C | 0.21 µM |
